According to patent publication US20060069132A1, “Azolecarboxamide herbicides” (priority 2004, published 2006):

Key:
yellow nutsedge = test: Test C pre-/postemergence herbicide test; type: in vivo, Cyperus esculentus; conditions: for Nutsedge, Yellow plant response rating: 500 g ai/ha
Summary of the method: (§1)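 Seeds were planted and sprayed preemergence with test chemicals in a non-phytotoxic solvent mixture containing surfactant; postemergence treatments went onto plants 2 to 18 cm tall (1- to 4-leaf stage). After 12 to 14 days in a greenhouse, injury was rated visually against untreated controls on a 0–100 scale.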

chickweed = test: Test C postemergence herbicide test; type: in vivo, Stellaria media
Summary of the method: (§2)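 Postemergence sprays were applied to plants 2 to 18 cm tall (1- to 4-leaf stage); in the flooded paddy test, barnyardgrass was grown to the 2-leaf stage. After 12 to 14 days in a greenhouse, injury was visually rated against untreated controls on a 0–100 scale (100 = complete control).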

barnyardgrass = test: Test C flooded paddy test; type: in vivo, Echinochloa crus-galli; conditions: for Plant response rating, Barnyardgrass: visual rating after 12 to 14 days
Summary of the method: as §2

velvetleaf = test: Test A pre-/postemergence herbicide test; type: in vivo, Abutilon theophrasti; conditions: for Velvetleaf plant response rating: Preemergence
Summary of the method: (§3)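 Seeds sown in sandy loam received a preemergence directed soil spray of compound in non-phytotoxic solvent with surfactant; postemergence plants (2–10 cm, one- to two-leaf stage) were sprayed to runoff at the same time. After ~10 days in greenhouse, injury was rated visually versus untreated controls (0 = no effect, 100 = complete control).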

morningglory [1] = test: Test C pre-/postemergence herbicide test; type: in vivo, Ipomoea coccinea; parameters: key to Plant response rating, Morningglory: 0 = no effect, 100 = complete control; conditions: for Morningglory plant response rating: 500 g ai/ha
Summary of the method: as §1

giant foxtail = test: Test C pre-/postemergence herbicide test; type: in vivo, Setaria faberi; conditions: for Foxtail, Giant plant response rating: 500 g ai/ha
Summary of the method: as §1

redroot pigweed = test: Test A pre-/postemergence herbicide test; type: in vivo, Amaranthus retroflexus; conditions: for Plant response rating, Pigweed: Postemergence; for Pigweed plant response rating: Preemergence
Summary of the method: as §3

[2] = tested on: smallflower umbrella sedge; test: Test C flooded paddy test; type: in vivo, Cyperus difformis; conditions: for Plant response rating, Sedge, Umbrella: visual rating after 12 to 14 days
eastern black nightshade = test: Test C pre-/postemergence herbicide test; type: in vivo, Solanum ptycanthum; conditions: for Plant response rating, Nightshade: visual, 12 to 14 days
Summary of the method: as §1

lambsquarters = test: Test C pre-/postemergence herbicide test; type: in vivo, Chenopodium album; conditions: for Lambsquarters plant response rating: 500 g ai/ha
Summary of the method: as §1

bermudagrass = test: Test C pre-/postemergence herbicide test; type: in vivo, Cynodon dactylon; conditions: for Bermudagrass plant response rating: 500 g ai/ha
Summary of the method: as §1

morningglory [3] = test: Test A pre-/postemergence herbicide test; type: in vivo, Ipomoea spp.; conditions: for Plant response rating, Morningglory: Postemergence; for Morningglory plant response rating: Preemergence
Summary of the method: as §3

common ragweed = test: Test C pre-/postemergence herbicide test; type: in vivo, Ambrosia elatior; parameters: key to Plant response rating, Ragweed: 0 = no effect, 100 = complete control; conditions: for Ragweed plant response rating: 500 g ai/ha
Summary of the method: as §1

[4] = 125 g ai/ha, scale 0 (no effect) to 100 (complete control), visual, 12 to 14 days, preemergence
[5] = 250 g ai/ha, scale 0 to 100 (0 no effect, 100 complete control), visual, 12 to 14 days, preemergence
[6] = Postemergence, 250 g ai/ha, scale 0 to 100, 0 no effect, 100 complete control
[7] = Preemergence, scale 0 to 100, 0 no effect, 100 complete control
[8] = postemergence, 62 g ai/ha, scale 0 to 100
[9] = Postemergence, 125 g ai/ha, scale 0 to 100, 0 no effect, 100 complete control
[10] = 62 g ai/ha, scale 0 to 100 (0 no effect, 100 complete control)
[11] = 125 g ai/ha, scale of 0 to 100, 0 is no effect, 100 is complete control
[12] = 250 g ai/ha, scale 0 to 100 (0 no effect, 100 complete control)
[13] = 500 g ai/ha, scale 0 to 100 (0 no effect, 100 complete control)
[14] = 500 g ai/ha, visual rating, 0 to 100 scale (0 no effect, 100 complete control)
[15] = 2000 g ai/ha, 0 to 100 scale, 0 no effect, 100 complete control
[16] = 500 g ai/ha, 0 to 100 scale, 0 no effect, 100 complete control

Question: `C#CCNC(=O)c1cccc(NC(=O)c2cc(C(C)(C)C)nn2CC)c1` [Compound 47] was tested. Which “Plant response rating (0 = no effect, 100 = complete control), Nutsedge, Yellow” value (yellow nutsedge; 62 g ai/ha, preemergence) did it give?
Answer: 0

Question: What about the “Plant response rating, Nutsedge, Yellow” value (yellow nutsedge; [4]) of the same molecule?
Answer: 0

Question: And the “Plant response rating, Nutsedge, Yellow” value (yellow nutsedge; [5])?
Answer: 0

Question: And the “Nutsedge, Yellow plant response rating” value (yellow nutsedge; Postemergence, scale 0 to 100)?
Answer: 30

Question: What about the “Plant response rating, Nutsedge, Yellow” value (yellow nutsedge; [6]) of the same molecule?
Answer: 30

Question: What about the “Nutsedge, Yellow plant response rating” value (yellow nutsedge; [7]) of the same molecule?
Answer: 0

Question: And the “Plant response rating, Nutsedge, Yellow” value (yellow nutsedge; [8])?
Answer: 20

Question: And the “Chickweed plant response rating” value (chickweed; Postemergence, 500 g ai/ha, scale 0 to 100)?
Answer: 100

Question: What about the “Plant response rating, Chickweed” value (chickweed; [9]) of the same molecule?
Answer: 90

Question: And the “Plant response rating, Chickweed” value (chickweed; [6])?
Answer: 90

Question: And the “Plant response rating, Chickweed” value (chickweed; [8])?
Answer: 90

Question: And the “Barnyardgrass plant response rating” value (barnyardgrass; [10])?
Answer: 0

Question: What about the “Barnyardgrass plant response rating” value (barnyardgrass; [11]) of the same molecule?
Answer: 0

Question: What about the “Plant response rating, Barnyardgrass” value (barnyardgrass; [12]) of the same molecule?
Answer: 40

Question: And the “Plant response rating, Barnyardgrass” value (barnyardgrass; [13])?
Answer: 40

Question: What about the “Plant response rating, Velvetleaf” value (velvetleaf; Postemergence, 2000 g ai/ha, 0 to 100 scale, 0 no effect, 100 complete control) of the same molecule?
Answer: 40

Question: And the “Velvetleaf plant response rating” value (velvetleaf; [14])?
Answer: 20

Question: What about the “Velvetleaf plant response rating” value (velvetleaf; [15]) of the same molecule?
Answer: 95

Question: And the “Plant response rating (0 = no effect, 100 = complete control), Morningglory” value (morningglory [1]; 62 g ai/ha, preemergence)?
Answer: 0

Question: And the “Plant response rating, Morningglory” value (morningglory [1]; [4])?
Answer: 0

Question: What about the “Plant response rating, Morningglory” value (morningglory [1]; [5]) of the same molecule?
Answer: 90

Question: What about the “Morningglory plant response rating” value (morningglory [1]; Postemergence, scale 0 to 100) of the same molecule?
Answer: 90

Question: What about the “Plant response rating, Morningglory” value (morningglory [1]; [6]) of the same molecule?
Answer: 70

Question: And the “Morningglory plant response rating” value (morningglory [1]; [7])?
Answer: 90

Question: And the “Plant response rating, Morningglory” value (morningglory [1]; [8])?
Answer: 50

Question: What about the “Plant response rating (0 = no effect, 100 = complete control), Foxtail, Giant” value (giant foxtail; 62 g ai/ha, preemergence) of the same molecule?
Answer: 40

Question: And the “Plant response rating, Foxtail, Giant” value (giant foxtail; [4])?
Answer: 70

Question: What about the “Plant response rating, Foxtail, Giant” value (giant foxtail; [5]) of the same molecule?
Answer: 80

Question: What about the “Foxtail, Giant plant response rating” value (giant foxtail; Postemergence, scale 0 to 100) of the same molecule?
Answer: 70

Question: And the “Plant response rating, Foxtail, Giant” value (giant foxtail; [9])?
Answer: 60

Question: What about the “Plant response rating, Foxtail, Giant” value (giant foxtail; [6]) of the same molecule?
Answer: 60

Question: And the “Foxtail, Giant plant response rating” value (giant foxtail; [7])?
Answer: 90

Question: What about the “Plant response rating, Foxtail, Giant” value (giant foxtail; [8]) of the same molecule?
Answer: 60

Question: What about the “Plant response rating, Pigweed” value (redroot pigweed; [16]) of the same molecule?
Answer: 100

Question: What about the “Plant response rating, Pigweed” value (redroot pigweed; [15]) of the same molecule?
Answer: 100

Question: What about the “Pigweed plant response rating” value (redroot pigweed; [14]) of the same molecule?
Answer: 100

Question: And the “Pigweed plant response rating” value (redroot pigweed; [15])?
Answer: 100

Question: And the “Sedge, Umbrella plant response rating” value [2, 10]?
Answer: 30

Question: What about the “Sedge, Umbrella plant response rating” value [2, 11] of the same molecule?
Answer: 70

Question: And the “Plant response rating, Sedge, Umbrella” value [2, 12]?
Answer: 80

Question: What about the “Plant response rating, Sedge, Umbrella” value [2, 13] of the same molecule?
Answer: 80

Question: And the “Plant response rating (0 = no effect, 100 = complete control), Nightshade” value (eastern black nightshade; 62 g ai/ha, preemergence)?
Answer: 100

Question: And the “Plant response rating, Nightshade” value (eastern black nightshade; 125 g ai/ha, scale 0 (no effect) to 100 (complete control), preemergence)?
Answer: 100

Question: And the “Plant response rating, Nightshade” value (eastern black nightshade; 250 g ai/ha, scale 0 to 100 (0 no effect, 100 complete control), preemergence)?
Answer: 100

Question: What about the “Nightshade plant response rating” value (eastern black nightshade; Preemergence, 500 g ai/ha, scale 0 to 100, 0 no effect, 100 complete control) of the same molecule?
Answer: 100

Question: What about the “Plant response rating (0 = no effect, 100 = complete control), Lambsquarters” value (lambsquarters; 62 g ai/ha, preemergence) of the same molecule?
Answer: 100

Question: What about the “Plant response rating, Lambsquarters” value (lambsquarters; [4]) of the same molecule?
Answer: 100

Question: What about the “Plant response rating, Lambsquarters” value (lambsquarters; [5]) of the same molecule?
Answer: 100

Question: And the “Lambsquarters plant response rating” value (lambsquarters; Postemergence, scale 0 to 100)?
Answer: 100

Question: What about the “Plant response rating, Lambsquarters” value (lambsquarters; [6]) of the same molecule?
Answer: 100

Question: And the “Lambsquarters plant response rating” value (lambsquarters; [7])?
Answer: 100

Question: And the “Plant response rating, Lambsquarters” value (lambsquarters; [8])?
Answer: 90

Question: And the “Plant response rating (0 = no effect, 100 = complete control), Bermudagrass” value (bermudagrass; 62 g ai/ha, preemergence)?
Answer: 90

Question: What about the “Plant response rating, Bermudagrass” value (bermudagrass; [4]) of the same molecule?
Answer: 100

Question: What about the “Plant response rating, Bermudagrass” value (bermudagrass; [5]) of the same molecule?
Answer: 100

Question: And the “Bermudagrass plant response rating” value (bermudagrass; Postemergence, scale 0 to 100)?
Answer: 60

Question: What about the “Bermudagrass plant response rating” value (bermudagrass; [7]) of the same molecule?
Answer: 100

Question: What about the “Plant response rating, Bermudagrass” value (bermudagrass; [8]) of the same molecule?
Answer: 60

Question: What about the “Plant response rating, Morningglory” value (morningglory [3]; [16]) of the same molecule?
Answer: 20

Question: And the “Plant response rating, Morningglory” value (morningglory [3]; [15])?
Answer: 25

Question: And the “Morningglory plant response rating” value (morningglory [3]; [14])?
Answer: 20

Question: And the “Morningglory plant response rating” value (morningglory [3]; [15])?
Answer: 30

Question: What about the “Plant response rating (0 = no effect, 100 = complete control), Ragweed” value (common ragweed; 62 g ai/ha, preemergence) of the same molecule?
Answer: 80

Question: What about the “Plant response rating, Ragweed” value (common ragweed; [4]) of the same molecule?
Answer: 80

Question: What about the “Plant response rating, Ragweed” value (common ragweed; [5]) of the same molecule?
Answer: 100

Question: What about the “Ragweed plant response rating” value (common ragweed; Postemergence, scale 0 to 100) of the same molecule?
Answer: 90

Question: And the “Plant response rating, Ragweed” value (common ragweed; [6])?
Answer: 80

Question: What about the “Ragweed plant response rating” value (common ragweed; [7]) of the same molecule?
Answer: 100

Question: And the “Plant response rating, Ragweed” value (common ragweed; [8])?
Answer: 70
